Laboratory results reported in patent US11292773B2, “Small molecule inhibitors of BCL-2-associated death promoter (BAD) phosphorylation” (NATIONAL UNIVERSITY OF SINGAPORE, priority 2017, dated 2022).

What was measured:
[1] = system: MCF7 cells; experiment: Annexin V and propidium iodide apoptosis assay (FACS); assay type: cell-based, human; settings: about 24 hours, dose dependent manner
Method: Phosphatidylserine exposure and cell death are assessed by FACS analysis using Annexin-V-FLUOS Staining Kit (Life Technologies, Singapore) and PI-stained cells. Briefly, 1×10^5 MCF cells/well (190 μL/well) are seeded in 6-well plates and incubated with different concentrations of NPB for about 24 hours and DMSO treated samples are used as control. Cells are then washed with Annexin V binding buffer (10 mM HEPES/NaOH, pH7.4, 140 mM NaCl, 2.5 mM CaCl2), stained with Annexin V FITC for about 30 minutes at room temperature in the dark, then washed again and re-suspended in Annexin V binding buffer containing PI. Samples are analyzed immediately on a BD FACSAria Cell Sorter (BD Biosciences, San Jose, Calif.).
Loss of membrane integrity and translocation of phosphatidylserine to outer leaflet of plasma membrane are the early events of apoptosis which can be detected using FITC conjugated annexin-V and propidium iodide staining. It is observed that NPB induces apoptosis in MCF7 cells using FITC-annexin V and propidium iodide. On treatment with NPB, increase in both early (PI negative, FITC-Annexin V positive) and late apoptotic cells (PI positive, FITC-Annexin V positive) is observed in a dose dependent manner as shown in FIG. 13A.

[2] = molecular target: T1, hBAD Ser99 phosphorylation (Homo sapiens, UniProt Q92934); experiment: Western blot of BAD Ser99 phosphorylation in MCF7 cells; assay type: cell-based
T1 construct: endogenous in cells; host or cells: MCF7 (A6); 25 carcinoma cell lines of seven cancer types (A7)
T1 sequence (Q92934 1-168): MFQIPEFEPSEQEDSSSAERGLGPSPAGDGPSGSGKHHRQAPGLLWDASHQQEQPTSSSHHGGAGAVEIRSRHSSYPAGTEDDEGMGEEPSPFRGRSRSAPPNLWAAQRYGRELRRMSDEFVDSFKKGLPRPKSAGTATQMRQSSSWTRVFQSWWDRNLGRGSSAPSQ
Method: (A) Sensorgrams obtained by SPR analysis of NPB with the BAD protein subunit. The BAD protein subunit was immobilized onto the surface of a CM5 sensor chip. A solution of NPB at variable concentrations (20-100 μM) was injected to generate result binding responses (RU) recorded as a function of time (sec). The results were analyzed using BIA evaluation 3.1. (B) Western blot (WB) analysis was used to assess the level of Ser99 phosphorylation of BAD in MCF7 cells after treatment with NPB. (Below) Calculated IC50 of NPB from dose-response for BAD phosphorylation (Ser99), BAD and β-ACTIN as in shown above by use of ImageJ software from NIH, USA (http://imagej.nih.gov/ij/). (C) WB analysis was used to assess the level of a multiple proteins involved upstream of BAD in MCF7 cells after treatment with NPB. (D) WB analysis was used to assess the level of a multiple protein involved cell survival and cell proliferation in MCF7 cells after treatment with NPB. For WB analysis, soluble whole cell extracts were run on an SDS-PAGE and immunoblotted as described in methodology. β-ACTIN (ACTB) was used as an input control for cell lysate. The sizes of detected protein bands in kDa are shown on the left side.
Phosphorylation of hBAD at residues Ser-75 (mouse BAD serine residue 112) and Ser-99 (mouse BAD serine residue 136) are crucial in regulating the activity of the BCL-2 family of anti-apoptotic proteins. hBAD phosphorylation either at Ser-75 or Ser99 (or the corresponding residues in mouse bad) results in loss of the ability of hBAD to heterodimerize with BCL-xL or BCL-2 [15]. To further validate the predicted target, we first analyzed the effect of NPB on phosphorylation of hBAD at Ser99 by western blot analysis.

[3] = system: AKT; experiment: Western blot of pAKT (Ser473), AKT, pBAD (Ser99) and BAD in carcinoma cell lines; assay type: cell-based, human; design: dose or concentration left out as unconfirmed; settings: MCF7, Caov-3, Ishikawa, AsPC-1
Method: (A) WB analysis was used to assess the levels of phosphorylated human BAD (at Ser75 and Ser99) and BAD protein in the range of carcinoma cell lines, including mammary, ovarian, pancreatic, endometrial, hepatocellular, colon and prostate cancer after treatment with NPB (5 μM). Total BAD was used as an input control for cell lysate. (B) WB analysis was used to assess the levels of pBAD (Ser99) and pAKT (Ser473), AKT and BAD in MCF7, Caov-3, Ishikawa, and AsPC-1 cells. […] Depletion of AKT expression was achieved using transient-transfection of short hairpin (sh)-RNA (1&2) directed to AKT transcript as described in methodology. β-ACTIN was used as an input control for cell lysate. For WB analysis, soluble whole cell extracts were run on an SDS-PAGE and immunoblotted as described in materials methodology. The sizes of detected protein bands in kDa are shown on the left side. Note: #; non-transformed immortalized-cell line.
The upstream AKT Ser/Thr kinase regulates the phosphorylation of hBAD at Ser99 [13]. We therefore determined whether NPB inhibits the phosphorylation of hBAD (Ser99) via modulation of the activity of AKT (as indicated by phosphorylation of Ser473) using western blot analysis. We observed no change in the levels of pAKT or levels of total AKT protein after exposure of four different carcinoma cells lines (MCF7, Caov-3, Ishikawa, and AsPC-1) to 10 μM NPB. […]

phosphorylation of hBAD Ser99 [2]: dose dependent decrease | total hBAD protein [2]: without a significant change | EC50 ([2]; ImageJ, read-out: EC50 for inhibition of BAD Ser99 phosphorylation): 410 ± 210 nM
Structure (SMILES): O=C(NC1CCCC1)c1cccc(C(c2ccccc2O)N2CCN(c3cccc(Cl)c3Cl)CC2)c1 (stereo not drawn) [NPB, N-cyclopentyl-3-((4-(2,3-dichlorophenyl)piperazin-1-yl)(2-hydroxyphenyl)methyl) benzamide]
early and late apoptotic cells (FITC-Annexin V / PI) [1]: increase | BAD phosphorylation at the Ser99 site [3]: inhibition | levels of pAKT or total AKT protein [3]: no change
